Measured values as given in US4963565A, “In vivo treatment of mycobacterial infections with 6-cyclo octylamino-5,8-quinoline quinone” (priority 1986, dated 1990).

Legend:
Mycobacterium leprae = experiment: Inhibitory activity against Mycobacterium leprae in the macrophage model (3H thymidine uptake); format: cell-based, M. leprae (in human monocyte derived macrophages)
Excerpt: The effect of CQQ on Mycobacterium leprae, the causative agent for leprosy, was studied using monocyte derived macrophages obtained from human volunteers.
Blood from a healthy volunteer was drawn and monocytes were removed and cultured to the macrophage stage. This required about 7 days. The macrophages were then exposed to M. leprae bacilli obtained from biopsy specimens of leprosy patients. One sample was exposed to CQQ, while other samples were exposed to DDS (diaminodiphenyl sulphone), the standard antileprosy drug, or rifampin, at various concentrations. Macrophages were exposed to radiolabelled tritium (^3 H) labeled thymidine, and its uptake was measured using a liquid scintillation counter. A control model of M. leprae exposed macrophages, which was not treated was used as well. The uptake of thymidine is a measure of antimycobacterial activity.

M. intracellulare = experiment: In vitro activity against serovars of M. intracellulare, radiometric (Bactec) method; format: cell-based; conditions: comparison with CQQ; no data shown
Description: A study of the effect of CQQ on different serovars of M. intracellulare in vitro was performed using the radiometric (Bactec) method. Maximum growth index (GI) of 999 was determined (for control models) in terms of the number of days necessary for the culture to reach this stage. GI is measured using the special instrument which reads the amount of ^14 C labelled CO2 liberated from the strains using the ^14 C labelled substrates.

Row | Compound | Counts per minute (3H thymidine uptake) (Mycobacterium leprae; Sample I, 10 NG/ML) | Counts per minute (3H thymidine uptake) (Mycobacterium leprae; Sample II, DDS 10 NG/ML) | Counts per minute (3H thymidine uptake) (Mycobacterium leprae; Sample III, DDS 10 NG/ML) | Counts per minute (3H thymidine uptake) (Mycobacterium leprae; Sample I, 3 NG/ML) | Counts per minute (3H thymidine uptake) (Mycobacterium leprae; Sample II, 3 NG/ML) | Counts per minute (3H thymidine uptake) (Mycobacterium leprae; Sample III, 3 NG/ML) | Effectiveness on M. intracellulare strains (M. intracellulare)
1 | Nc1ccc(S(=O)(=O)c2ccc(N)cc2)cc1 [DDS, diaminodiphenyl sulphone, reference compound] | 84 COUNTS PER MINUTE | 78 COUNTS PER MINUTE | 84 COUNTS PER MINUTE |  |  |  | 
2 | CO[C@H]1/C=C/O[C@@]2(C)Oc3c(C)c(O)c4c(O)c(c(/C=N/N5CCN(C)CC5)c(O)c4c3C2=O)NC(=O)/C(C)=C\C=C\[C@H](C)[C@H](O)[C@@H](C)[C@@H](O)[C@@H](C)[C@H](OC(C)=O)[C@@H]1C [rifampin, reference compound] |  |  |  | 82 COUNTS PER MINUTE | 80 COUNTS PER MINUTE | 82 COUNTS PER MINUTE | only effective on a few strains
